Measured values: a melting point compilation (Tetko et al.; mined from patent text by program, amines drawn as free bases though some values may be those of a salt)

SMILES	melting point [°C]
COc1cc(Nc2c(C#N)cnc3cc(OCCCN4CCC(N5CCCCC5)CC4)c(OC)cc23)c(Cl)cc1Cl	130 to 132
N#CCSc1ccc([N+](=O)[O-])cc1	77 to 79
CCOc1cc2cc(CO)c(CO)c(-c3ccnc(-n4ccc5ccccc5c4=O)c3)c2cc1OCC	131 to 134
Cc1cc(NC(=O)C2(C)CC2)ccc1OC(C)C	99 to 101
COc1cc(OC)c(-c2nc(C)c(-c3cccnc3)[nH]2)cc1Br	246 to 248
CC(C)C(=O)n1cc(C(=O)C2CSC(c3cccnc3)N2)c2ccccc21 (configuration not stated)	78 to 80
O=Cc1cccc(OC(=O)C(=O)Oc2cccc(C=O)c2)c1	163 to 166
O=C1C(Cc2ccccc2)SC(=S)N1c1nc2ccccc2s1 (configuration not stated)	187 to 189
O=c1c(-c2ccc(NS(=O)(=O)c3ccccc3)cc2)coc2cc(O)c(O)cc12	285 to 286
CCOC(=O)[C@H](Cc1ccc(-c2c(OC)cc(CCO)cc2OC)cc1)NC(=O)c1c(F)cccc1F	115 to 117
CN1C(=O)C(C)(C)c2ccc(C(=O)O)cc21	253 to 255
O=S(=O)(Cl)c1nc2ccccn2n1	116 to 118
Cc1ccc(-c2ccc(C(=O)Nc3ccc4nc(CN(C(C)C)C(C)C)ccc4c3)cn2)cc1	211 to 213
Cc1ccc(C(=O)c2sc(Nc3ccc(S(N)(=O)=O)cc3)nc2N)c(C)c1	242 to 244
Clc1ccc(Cn2c(-c3ccc4c(c3)OCO4)nc3ccccc32)s1	130 to 131
CCNC(=O)c1cnn(C)c1	103 to 106
O=C1Nc2cccnc2N(C(=O)N2CCCCC2CCCCN2CCCCC2)c2ccccc21 (configuration not stated)	199 to 201
Cn1ncc(C(=O)N2CCC2)c1C(=O)Nc1ccn2nc(-c3ccccc3)nc2c1	243 to 245
N#CC(=Cc1cc2cccnc2n(-c2cc(Cl)cc(Cl)c2)c1=O)c1ccccn1	319
CCCn1c(=O)c2[nH]c([C@@H]3CC[C@H]4CCC[C@H]43)nc2n(CCC)c1=S (relative stereo)	135 to 137
O=C(c1ccc(F)c(Br)c1)N1CCC(Br)C(c2ccccc2)=N1 (configuration not stated)	147 to 148
COc1ccc(Nc2nc(Cl)nc(NCC3CCCCC3)n2)cc1F	156
Cc1nc(-n2ccc(OCc3ccccc3)cc2=O)sc1C(=O)NCc1ccc(F)cc1	223 to 225
CCCC(=O)Nc1cc(NC(=O)CCC)c2ccc(C)nc2c1OC(=O)CCC	195 to 200
CCOC(=O)c1oc(I)nc1C	110 to 112
CC(=O)Nc1ccc([N+](=O)[O-])c2c(Br)ccc(C)c12	216 to 217

SMILES	melting point [°C]
COc1ccccc1CNc1cccnc1Cl	121 to 125
Clc1cc(-c2ccccc2)nc2nn(-c3ccccc3)cc12	175 to 177
C=C(Cl)CC1(C)Cc2cc(O)c(Cl)c(Cl)c2C1=O (configuration not stated)	183
Cc1nccn1Cc1ccccc1	51 to 53
CC(C)(CF)C(O)C(c1ccc(Cl)cc1Cl)n1cncn1 (configuration not stated)	98 to 100
CCCOc1ccccc1-c1nc2nc(NC)nnc2c(=O)[nH]1	261 to 263
CN(C)C=NS(=O)(=O)c1cc(CCNC(=O)C(F)(F)F)ccc1-c1ccco1	150
CCCOC(=O)C1=C(C)NC(C(OC)OC)=C(C(=O)OC)C1c1ccccc1C#N (configuration not stated)	139 to 141
CCOC(=O)C1=C(C)NC(C)=C(C(=O)OCC)C1c1cccc(Br)c1	125 to 126
O=c1c(N2CCN(c3ccncc3)CC2)cn(Cc2ccccc2)c2cc(O)ccc12	141 to 146
CC1CC(=O)NN=C1c1ccc(N2CCN(C(=O)NCCCc3c[nH]cn3)CC2)c([N+](=O)[O-])c1 (configuration not stated)	182
O=C(O)CCCCCN(C(=O)c1ccc(Cl)cc1Cl)c1ccccc1-c1ccccc1	112 to 113
CS(=O)(=O)c1ccc(OCCCCl)cc1	84 to 86
CC(C)CCCC(C)C1CCC2C3=CC=C4CC(O)C=CC4(C)C3CCC21C (configuration not stated)	126 to 127
CCCN(CCC)C1Cc2cccc3nc(SC)n(c23)C1 (configuration not stated)	49 to 52
CCN(CC)CCOc1ccc2c(=O)c3ccc(OCCN(CC)CC)cc3oc2c1	70.5 to 72
CCn1c(=O)c2[nH]c(/C=C/c3ccccc3OC)nc2n(CC)c1=O	> 270
N[C@@H]1CCc2c(ccc(OCc3ccccc3)c2CO)[C@H]1O (relative stereo)	148 to 150
CCc1ccc2c(c1)C(c1ccccc1F)=NCc1cnc(C)n1-2	152 to 154
[N-]=[N+]=NC(c1ccccc1)C(O)c1ccccc1 (configuration not stated)	59 to 60
NC(=O)NCCCCC1CCSS1 (configuration not stated)	110 to 113
Cc1c(CCc2ccc3nc(N)oc3c2)nc2cc(CCl)ccn12	> 300
CN(Cc1ccco1)c1nccc(Oc2ccc(NC(=O)c3cc(F)cc(N4CCCCC4)c3)c3ccccc23)n1	155 to 156
CN(C)Cc1cccc(Oc2ccc3c(c2)S(=O)(=O)NC2CCCN32)c1 (configuration not stated)	122
COc1cc(COc2cc(NC(C)=O)c(Cl)cc2C(=O)CCCCCl)cc(OC)c1	135 to 137
CC(=O)OC1CSC(Oc2cccc3oc(C)nc23)C(OC(C)=O)C1OC(C)=O (configuration not stated)	149 to 151

SMILES	melting point [°C]
COc1ccc2cc(-c3ccc(O)cc3)[nH]c(=O)c2c1	255
COc1ccc(S(=O)(=O)CCNC(=O)N2CCCC2=O)cc1	124 to 125
CCOC(=O)c1cc(OCCOC)c(OCCOC)cc1[N+](=O)[O-]	50 to 51
Cn1nc(Cl)c(Cl)c1S(=O)(=O)CCCl	56 to 59
CCc1nc(=O)c2cc3ccccc3nc2[nH]1	240 to 245
CC(=O)c1ccc(CNC(=O)c2cccnc2Oc2ccc3nonc3c2)cc1	154 to 156
O=[N+]([O-])c1ccc(Sc2ncc(Cl)cn2)s1	141 to 143
O=C(Cn1c(=O)n(-c2ccc3c(c2)OCO3)c2ncccc21)N1CCOCC1	212 to 213
COc1ccc(S(=O)(=O)N2C(=O)C(c3ccccc3OC)(N3c4ccccc4C[C@H]3C(=O)N(C)C)c3cc(Cl)ccc32)c(OC)c1 (some centres not stated)	167
NCCOc1cc(Cl)cc([N+](=O)[O-])c1N	156 to 157
CCCC1C(=O)N(S(=O)(=O)c2ccc3ccccc3c2)C2CCN(S(=O)(=O)CCCN3CCOCC3)C12 (configuration not stated)	189 to 192
CC#CCOc1ccc(S(=O)(=O)C2(C(=O)O)CCN(Cc3ccc(C)cc3)CC2)cc1	188
c1ccc2c(c1)ncc1nc(C3CCC3)[nH]c12	191 to 192
CCCNc1c(C#N)cnn1-c1ccc(OC(F)(F)F)cc1Cl	63
Oc1c(Br)cc(-c2c3ccccc3c(Br)c3oc4ccccc4c23)c(O)c1Br	226 to 228
Cc1cc(C)c(NC(=O)N(Cc2ccc3c(c2)Cc2ccccc2-3)C2CCCCC2)c(C)c1	147 to 149
CCCCCN(CCC12CC3CC(CC(C3)C1)C2)C(=O)NCCCc1ccccn1	84.4 to 85.7
Cc1cc(-c2cccc(C(F)(F)F)c2)c2ncc(OC(F)F)nc2c1	105 to 106
Cc1nnnn1-c1ccccc1S(N)(=O)=O	141 to 148
CCCCCS(=O)(=O)NC(=O)/C=C/c1cc(OC2CCOCC2)nn1Cc1ccc(C(F)(F)F)cc1Cl	160 to 161
COc1ccc(S(=O)(=O)F)nn1	87 to 88
CS(=O)(=O)O[C@H]1C[C@@H](C(=O)OCc2ccccc2)N(S(C)(=O)=O)C1	91 to 92
CCCCc1oc2ccccc2c1/C=N/OCCCOc1ccc(CC(=O)O)cc1	181 to 182
CCn1c(=O)c2[nH]c(/C=C/c3cccc(F)c3C)nc2n(CC)c1=O	> 270
NCc1ccc(-c2nc(-c3ccc(F)cc3)c(-c3ccncc3)[nH]2)cc1	214 to 215
OC(=S)Cc1cc(Cl)ccc1Cl	118

SMILES	melting point [°C]
CC(=O)N(C(=O)N(C)C)c1nnc(C(F)(F)F)s1	61 to 63
COc1ccc(CS[C@H]2C[C@@H](C(=O)N3CCN(C)CC3)N(C(=O)OCc3ccc([N+](=O)[O-])cc3)C2)cc1	140 to 141
COc1ccc(-c2cc(=O)[nH]c(=O)[nH]2)cc1OC	> 300
CC(=O)NC1CCC(NC(=O)Nc2ccc(C(F)(F)F)cc2)CC1 (configuration not stated)	> 400
Cc1cc(-c2cccc(Cl)c2)nnc1Cl	138 to 140
COc1cccc(CNc2nccc(-c3cc(N4CCN(CCCN5CCOCC5)CC4)c4cc(OC)ccc4c3)n2)c1	65 to 73
CCCc1c(OCCOCCC(=O)OC)ccc(C(C)=O)c1O	48 to 50
COc1ccc(-c2cc(C)c3occc3c2)cc1	82 to 83
COC1(c2cc(OCc3ccc4c(c3)OCCC4=NO)nc(N)n2)CCOCC1	224 to 228
NS(=O)(=O)c1ccc(-c2[nH]c3ccccc3c2-c2ccccc2)cc1	231 to 232
C=CCn1c(N)cc(=O)n1-c1ccccc1	184 to 185
O=C(NC1CCC(CNc2nc3c(s2)CCOc2ccccc2-3)CC1)OCc1ccccc1 (configuration not stated)	124 to 127
CC(=O)OC1COc2ccc3ncccc3c2C1 (configuration not stated)	125 to 127
Cc1cnc(NC(=O)C2=C(O)c3ccc4ccccc4c3S(=O)(=O)N2C)s1	249 to 250
CCc1c(C(C)C)cc(C(C)C)c(CO)c1-c1ccc(F)cc1	106 to 108
Cc1nnnn1CC(C)n1nnc2cc3c(=O)n(C4CC4)nnc3cc2c1=O (configuration not stated)	208 to 211
CSc1nc2nc3cc(C(F)(F)F)ccc3cc2[nH]1	> 270
CSc1nc2c(cc1Cl)N(C(=O)Nc1cccnc1)CC2	266 to 267
COC(=O)C(C)Oc1ncn(-c2cccc(C(F)(F)F)c2)n1 (configuration not stated)	135 to 137
COc1ccc(CNC2SC(=O)NC2=O)cc1 (configuration not stated)	140 to 142
Cc1ccc(C(O[Si](C)(C)C(C)(C)C)C(=O)NCCO)cc1 (configuration not stated)	69 to 70
Cc1cc(-c2nc3ccccc3s2)ccc1N	193 to 195
CCn1nc(NC(=O)NS(=O)(=O)c2ccccc2C(=O)OC)nc1SC	188 to 191
N#CCCN(CC1CC1)C(N)=O	84 to 87
